Legend:
[1] = tested on: BFU-E (Burst Forming Unit-Erythroid) progenitors from CD34+ cells; assay: Colony assay in methylcellulose, BFU-E; type: cell-based, human; details: CD34+ cells seeded in methylcellulose in the presence of compound; compared to untreated control
Description: (§1) CD34^+cells were obtained from leukapheresis samples after mobilization of donors after informed consent in agreement with our Institute Ethic Committee (Assistance Publique des Hôpitaux de Paris) and in accordance with the Declaration of Helsinki. CD34^+cells were isolated by a positive selection using an immunomagnetic cell sorting system (AutoMacs; Miltenyi Biotec, Bergisch Gladbach, Germany). 500 to 1000 normal CD34^+cells were plated either in 1% methylcellulose assay (StemCells technologies, Vancouver, Canada) to quantify erythroid (BFU-E) and granulo-monocytic (CFU-GM) progenitors or in serum-free fibrin clot assay for quantification of MK progenitors (CFU-MK) in the absence or presence of various concentration of SAR405838 or MI-219. Cultures in methylcellulose were stimulated by addition of human recombinant growth factors: G-CSF (20 ng/mL), IL-3 (10 ng/mL) SCF (25 ng/mL, Biovitrum AB, Stockholm, Sweden), IL-6 (10 ng/mL), FLT3 (10 ng/mL) and human EPO (1 U/mL). Cultures in fibrin clot were stimulated with 10 ng/mL TPO (Kirin Brewery, Tokyo, Japan) and 25 ng/mL SCF. BFU-E and CFU-GM colonies were enumerated at day 14 of culture. CFU-MK colonies were enumerated at day 12 after labeling by an indirect immuno-alkaline phosphatase staining technique using an anti-CD41a monoclonal antibody (MoAb; Becton Dickinson, le Pont de Claix, France; clone HIP8), as previously described.

[2] = tested on: CFU-MK (Colony Forming Unit-Megakaryocyte) progenitors from CD34+ cells; assay: Colony assay in fibrin clot, CFU-MK; type: cell-based, human; details: CD34+ cells seeded in fibrin clot in the presence of compound; compared to untreated control
Description: as §1, with “CFU-MK colonies were enumerated at day 12 after labeling by an indirect immuno-alkaline phosphatase staining technique using an anti-CD41a monoclonal antibody (MoAb; Becton Dickinson, le Pont de Claix, France; clone HIP8), as previously described.” left out

[3] = tested on: Day 6 megakaryoblasts (ploidization); assay: MK ploidy by flow cytometry (CD41/CD42/vital Hoechst staining); type: cell-based, human; details: day 6 megakaryoblasts treated 72 hours, analysed day 9; SAR405838 at 1 μM; untreated control 4.4 N
Description: First, we investigated if MDM2 inhibitors affect MK ploidization. SAR405838 induced a significant reduction in the mean ploidy (3.0 N at the dose of 1 μM versus 4.4 N for untreated control or for MI-219 treatment) (Supplementary Figure S1). page 1: P53 activation inhibits all types of hematopoietic progenitors and all stages of megakaryopoiesis SUPPLEMENTARY FIGURE Supplementary Figure S1: Effect of SAR405838 on polyploidization. Day 6 megakaryoblasts were treated for 72 hours with various doses of MI-219 or SAR405838. At day 9, ploidy was analyzed by flow cytometry using a CD41/CD42/vital Hoechst staining. N represents the mean ploidy. As shown, SAR405838 induced a significant reduction in the mean ploidy (3.0N at the dose of 1μM versus 4.4N for control or for MI-219 treatment). The Figure illustrates a representative experiment in triplicate. Two other experiments in triplicate gave similar results. […]

[4] = tested on: CFU-GM (Colony Forming Unit-Granulocyte Macrophage) progenitors from CD34+ cells; assay: Colony assay in methylcellulose, CFU-GM; type: cell-based, human; details: CD34+ cells seeded in methylcellulose in the presence of compound; compared to untreated control
Description: as §1, with “BFU-E and CFU-GM colonies were enumerated at day 14 of culture.” left out

[5] = tested on: p53 pathway in megakaryocytes (MKs); assay: p53 pathway proteins and transcripts in MKs (western-blot, qRT-PCR); type: cell-based, human; details: day 7-MKs (legend: day 10-MK), 5 μM for 24 or 48 hours
Description: We also explored the effects of p53 stabilization at a later stage of megakaryocytic differentiation. […] Day 7-MKs were treated with 5 μM Nutlin 3a for 24 or 48 hours, which led to an increase in p53, p21, BAX, BCL2 and BCL-XL levels, confirming a functional p53 activity (Figure 6A). […] Similar results were found with day 6-megakaryoblasts treated with two doses of SAR405838 for 72 hours (Figure 6D/6E) without any major effect on the percentage of CD41^+ cells (Figure 6F). […] As shown in Figure 6D/6E, at the dose of 0.5 μM the SAR405838 induced a 50% decreased in the number of viable cells while the apoptotic cells reached 50% of the total cells. We checked if the effect of SAR405838 on MKs could be reverted by the addition of high TPO doses. CD34^+ progenitors were cultured in serum-free medium supplemented with SCF and low dose of TPO (1 ng/mL) for 6 days. Day 6-megakaryoblasts were then treated with 1.5 μM of SAR405838 for 48 hours and various doses of TPO.
In parallel, the expression of P53, BAK, BCL2L1, NOXA, PUMA, BAX, P21 and P53 were quantified by qRT-PCR related to HPRT. C. […] (n=3). […]
PCRs were carried out in the ABI Prism GeneAmp 5700 (Perkin-Elmer) using the Power SYBR-Green PCR Master Mix (ABI) containing the specific primers. The expression levels of all genes were calculated relatively to HPRT or to PPIA housekeeping gene.
Proteins were quantified by Image J software.

[6] = set-up: method as in PMID 23084521, PMID 24309210; details: clinical and preclinical data in rats and monkeys; cited from earlier work

CC(C)(C)C[C@H]1N[C@@H](C(=O)NCC[C@H](O)CO)[C@H](c2cccc(Cl)c2)[C@@]12C(=O)Nc1cc(Cl)c(F)cc12.Cl [MI-219]
dose inducing a 50% reduction of BFU-E numbers [1]: significant less potent activity compared to SAR405838
dose inducing a 50% reduction of CFU-MK numbers [2]: significant less potent activity compared to SAR405838
mean ploidy [3]: 4.4 N
dose inducing a 50% reduction of CFU-GM numbers [4]: significant less potent activity compared to SAR405838

COc1ccc(C2=N[C@@H](c3ccc(Cl)cc3)[C@@H](c3ccc(Cl)cc3)N2C(=O)N2CCNC(=O)C2)c(OC(C)C)c1 [Nutlin 3a]
p53, p21, BAX, BCL2 and BCL-XL levels (western-blot) [5]: increase

COc1ccc(C2=N[C@@H](c3ccc(Cl)cc3)[C@@H](c3ccc(Cl)cc3)N2C(=O)N2CCNC(=O)C2)c(OC(C)C)c1 [Nutlin]
hematological adverse effect [6]: major thrombocytopenia

CCOc1cc(C(C)(C)C)ccc1C1=N[C@@](C)(c2ccc(Cl)cc2)[C@@](C)(c2ccc(Cl)cc2)N1C(=O)N1CCN(CCCS(C)(=O)=O)CC1 [RG7112]
hematological adverse effect [6]: major thrombocytopenia
